# From ChEMBL document CHEMBL4507299, “Data for DCP probe PF-04554878” (2021)
# What was measured:
# [1] = target: T1, D(1A) dopamine receptor (Homo sapiens, UniProt P21728); assay: GPCRScan assay: inhibition of D1; design: radioligand conc. used [nm] 0.6 – 1.3, parental cells HEKT
# [2] = target: Adenosine receptor A2a (Homo sapiens, UniProt P29274); assay: Cerep profiling assay (ADORA2A); design: compound concentration 10 uM
# [3] = target: Tyrosine-protein kinase Lyn (Homo sapiens, UniProt P07948); assay: Cerep profiling assay (LYN); design: compound concentration 10 uM
# [4] = target: Tyrosine-protein kinase ABL1 (Homo sapiens, UniProt P00519); assay: ABL Invitrogen kinase activity assay
# [5] = target: RAC-alpha serine/threonine-protein kinase (Homo sapiens) (UniProt P31749); assay: AKT1 Invitrogen kinase activity assay; conditions: Compound concentration 1.0 uM
# [6] = target: Calcium/calmodulin-dependent protein kinase type 1 (Homo sapiens) (UniProt Q14012); assay: CAMK1 Invitrogen kinase activity assay; conditions: Compound concentration 1.0 uM
# [7] = target: Cyclin-dependent kinase 2/cyclin A (Homo sapiens) (UniProt P24941+P20248+P78396); assay: (§1) CDK2/cyclinA Invitrogen kinase activity assay; type: protein-complex assay; conditions: Compound concentration 1.0 uM
# [8] = target: Cyclin-dependent kinase 2/cyclin A (Homo sapiens, UniProt P24941); assay: as §1; type: protein-complex assay
# [9] = target: Casein kinase II subunit alpha (Homo sapiens) (UniProt P68400); assay: CK2 Invitrogen kinase activity assay; conditions: Compound concentration 1.0 uM
# [10] = target: Dual specificity protein kinase CLK1 (Homo sapiens, UniProt P49759); assay: CLK1 Invitrogen kinase activity assay
# [11] = target: Epidermal growth factor receptor (Homo sapiens) (UniProt P00533); assay: EGFR Invitrogen kinase activity assay; conditions: Compound concentration 1.0 uM
# [12] = target: Glycogen synthase kinase-3 beta (Homo sapiens, UniProt P49841); assay: GSK3beta Invitrogen kinase activity assay
# [13] = target: Mitogen-activated protein kinase kinase kinase 9 (Homo sapiens, UniProt P80192); assay: MAP3K9 Invitrogen kinase activity assay
# [14] = target: MAP kinase-activated protein kinase 2 (Homo sapiens) (UniProt P49137); assay: MAPKAPK2 Invitrogen kinase activity assay; conditions: Compound concentration 1.0 uM
# [15] = target: Serine/threonine-protein kinase 26 (Homo sapiens) (UniProt Q9P289); assay: MASK Invitrogen kinase activity assay; conditions: Compound concentration 1.0 uM
# [16] = target: NEK kinase (Homo sapiens) (UniProt P51955+Q9HC98+Q8TDX7+Q6P3R8+Q8TD19+Q8NG66+P51956+P51957+Q96PY6+Q86SG6+Q6ZWH5); assay: NEK Invitrogen kinase activity assay; type: protein assay; conditions: Compound concentration 1.0 uM
# [17] = test system: Ribosomal protein S6 kinase beta-1 (Homo sapiens), P23443 [UNDEFINED MUTATION]; assay: S6K T389D D3E Invitrogen kinase activity assay; conditions: Compound concentration 1.0 uM
# [18] = target: Proto-oncogene tyrosine-protein kinase Src (Homo sapiens, UniProt P12931); assay: SRC Invitrogen kinase activity assay
# [19] = target: Vascular endothelial growth factor receptor 2 (Homo sapiens) (UniProt P35968); assay: VEGFR2/Flk1 Invitrogen kinase activity assay; conditions: Compound concentration 1.0 uM
# [20] = target: 5-hydroxytryptamine receptor 1E (Homo sapiens) (UniProt P28566); conditions: Compound concentration 10.0 uM
# [21] = target: Sodium-dependent dopamine transporter (Homo sapiens) (UniProt Q01959); conditions: Compound concentration 10.0 uM
# [22] = target: T2, Tyrosine-protein kinase JAK3 (Homo sapiens) (UniProt P52333); conditions: Compound concentration 1.0 uM
# T2 sequence (whole entry): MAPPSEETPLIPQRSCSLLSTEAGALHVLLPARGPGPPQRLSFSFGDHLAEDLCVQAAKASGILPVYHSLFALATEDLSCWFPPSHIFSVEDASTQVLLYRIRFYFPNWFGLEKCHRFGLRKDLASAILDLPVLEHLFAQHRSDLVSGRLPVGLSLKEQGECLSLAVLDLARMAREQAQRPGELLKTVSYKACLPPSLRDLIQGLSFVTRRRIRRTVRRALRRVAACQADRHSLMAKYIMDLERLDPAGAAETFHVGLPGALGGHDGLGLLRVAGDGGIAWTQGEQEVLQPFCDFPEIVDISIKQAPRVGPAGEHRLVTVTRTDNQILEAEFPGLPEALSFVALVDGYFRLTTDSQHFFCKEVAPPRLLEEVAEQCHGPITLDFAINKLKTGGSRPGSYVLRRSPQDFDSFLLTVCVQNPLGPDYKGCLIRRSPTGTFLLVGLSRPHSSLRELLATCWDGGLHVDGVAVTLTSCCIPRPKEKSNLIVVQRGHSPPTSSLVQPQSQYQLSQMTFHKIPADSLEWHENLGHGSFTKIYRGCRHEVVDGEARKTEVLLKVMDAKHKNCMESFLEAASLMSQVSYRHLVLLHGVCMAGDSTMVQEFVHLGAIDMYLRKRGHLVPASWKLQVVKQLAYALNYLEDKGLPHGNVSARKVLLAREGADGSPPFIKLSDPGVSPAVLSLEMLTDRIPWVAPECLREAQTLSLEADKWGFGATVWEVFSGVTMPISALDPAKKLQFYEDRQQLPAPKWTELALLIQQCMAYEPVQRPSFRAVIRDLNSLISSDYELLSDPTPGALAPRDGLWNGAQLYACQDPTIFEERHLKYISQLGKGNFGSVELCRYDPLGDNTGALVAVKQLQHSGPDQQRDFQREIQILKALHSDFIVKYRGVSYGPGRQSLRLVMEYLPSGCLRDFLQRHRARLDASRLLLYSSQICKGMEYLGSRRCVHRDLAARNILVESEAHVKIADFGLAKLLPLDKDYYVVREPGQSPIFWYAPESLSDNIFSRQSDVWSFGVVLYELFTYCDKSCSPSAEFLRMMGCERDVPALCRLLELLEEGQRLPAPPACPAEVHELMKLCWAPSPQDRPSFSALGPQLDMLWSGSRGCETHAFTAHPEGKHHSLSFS
# [23] = target: High affinity nerve growth factor receptor (Homo sapiens) (UniProt P04629); conditions: Compound concentration 1.0 uM
# [24] = target: 3-phosphoinositide-dependent protein kinase 1 (Homo sapiens) (UniProt O15530); assay: PDK1 Invitrogen kinase activity assay; conditions: Compound concentration 1.0 uM
# [25] = target: Sigma intracellular receptor 2 (Homo sapiens, UniProt Q5BJF2); assay: GPCRScan assay: inhibition of Sigma 2; design: radioligand conc. used [nm] 5.0, parental cells HEKT
# [26] = target: Focal adhesion kinase 1 (Homo sapiens, UniProt Q05397); assay: Binding assay (PTK2)
# [27] = target: T1, D(1A) dopamine receptor; conditions: Compound concentration 10.0 uM
# [28] = target: D(2) dopamine receptor (Homo sapiens) (UniProt P14416); conditions: Compound concentration 10.0 uM
# [29] = target: Mu-type opioid receptor (Homo sapiens) (UniProt P35372); conditions: Compound concentration 10.0 uM
# [30] = target: Beta-2 adrenergic receptor (Homo sapiens) (UniProt P07550); conditions: Compound concentration 10.0 uM
# Chain of Proto-oncogene tyrosine-protein kinase Src (P12931 2-536 limits assumed): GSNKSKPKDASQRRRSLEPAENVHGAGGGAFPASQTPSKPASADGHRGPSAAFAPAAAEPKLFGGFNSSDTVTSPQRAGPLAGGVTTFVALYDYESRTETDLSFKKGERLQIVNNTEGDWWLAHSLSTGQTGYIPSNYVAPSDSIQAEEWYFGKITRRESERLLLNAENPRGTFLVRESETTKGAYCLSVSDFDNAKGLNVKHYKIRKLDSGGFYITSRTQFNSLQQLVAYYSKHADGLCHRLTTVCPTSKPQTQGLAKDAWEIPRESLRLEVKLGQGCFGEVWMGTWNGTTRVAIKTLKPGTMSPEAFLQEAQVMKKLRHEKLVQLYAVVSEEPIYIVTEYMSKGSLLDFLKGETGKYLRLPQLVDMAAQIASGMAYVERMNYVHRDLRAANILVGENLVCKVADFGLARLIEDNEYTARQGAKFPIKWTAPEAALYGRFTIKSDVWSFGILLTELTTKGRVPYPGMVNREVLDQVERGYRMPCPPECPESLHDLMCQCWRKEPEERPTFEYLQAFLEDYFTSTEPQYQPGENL
# Chain of Tyrosine-protein kinase ABL1 (P00519 whole entry): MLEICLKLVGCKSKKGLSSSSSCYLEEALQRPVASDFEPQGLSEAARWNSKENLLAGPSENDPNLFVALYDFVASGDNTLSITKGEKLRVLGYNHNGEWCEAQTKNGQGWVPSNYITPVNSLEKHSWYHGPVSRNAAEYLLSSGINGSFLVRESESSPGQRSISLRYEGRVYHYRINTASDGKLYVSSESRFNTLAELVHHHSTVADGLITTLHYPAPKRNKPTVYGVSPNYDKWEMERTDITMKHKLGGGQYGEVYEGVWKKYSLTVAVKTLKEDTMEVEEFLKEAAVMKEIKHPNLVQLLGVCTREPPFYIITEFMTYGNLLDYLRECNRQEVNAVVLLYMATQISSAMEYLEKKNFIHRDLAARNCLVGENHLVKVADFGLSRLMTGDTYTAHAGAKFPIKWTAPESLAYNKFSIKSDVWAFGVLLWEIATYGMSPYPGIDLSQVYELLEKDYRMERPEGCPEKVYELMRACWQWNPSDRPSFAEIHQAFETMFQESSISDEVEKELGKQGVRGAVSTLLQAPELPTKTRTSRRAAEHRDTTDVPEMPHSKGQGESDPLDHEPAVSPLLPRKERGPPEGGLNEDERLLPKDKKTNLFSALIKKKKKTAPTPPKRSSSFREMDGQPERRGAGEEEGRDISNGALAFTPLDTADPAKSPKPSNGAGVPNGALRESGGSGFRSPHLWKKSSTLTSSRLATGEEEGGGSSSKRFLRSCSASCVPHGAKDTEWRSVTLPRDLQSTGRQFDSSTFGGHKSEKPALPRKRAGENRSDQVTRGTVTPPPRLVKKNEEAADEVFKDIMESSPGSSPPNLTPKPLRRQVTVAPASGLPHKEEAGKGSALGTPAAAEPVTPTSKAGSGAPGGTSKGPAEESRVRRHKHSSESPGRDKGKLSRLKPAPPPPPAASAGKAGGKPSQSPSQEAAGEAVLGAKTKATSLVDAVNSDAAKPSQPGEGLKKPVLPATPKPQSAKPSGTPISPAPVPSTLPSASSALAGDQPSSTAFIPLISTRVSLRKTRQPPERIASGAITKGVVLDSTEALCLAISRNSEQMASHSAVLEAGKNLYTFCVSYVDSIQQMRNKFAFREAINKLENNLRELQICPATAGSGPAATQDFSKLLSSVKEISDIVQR
# T1 sequence (P21728 whole entry): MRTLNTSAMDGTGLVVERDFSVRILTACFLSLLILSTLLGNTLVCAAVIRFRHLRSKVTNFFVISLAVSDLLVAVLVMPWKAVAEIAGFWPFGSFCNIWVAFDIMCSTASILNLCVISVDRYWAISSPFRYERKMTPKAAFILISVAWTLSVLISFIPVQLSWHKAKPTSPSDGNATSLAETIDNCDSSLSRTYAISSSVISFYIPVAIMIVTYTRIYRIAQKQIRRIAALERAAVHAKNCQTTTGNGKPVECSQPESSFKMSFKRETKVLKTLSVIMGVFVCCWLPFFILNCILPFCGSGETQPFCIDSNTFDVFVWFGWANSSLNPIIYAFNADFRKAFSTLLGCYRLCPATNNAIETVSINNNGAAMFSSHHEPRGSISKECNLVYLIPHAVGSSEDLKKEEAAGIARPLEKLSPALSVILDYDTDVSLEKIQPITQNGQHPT
# Chain of MAP kinase-activated protein kinase 2 (Homo sapiens) (P49137 whole entry, looked up): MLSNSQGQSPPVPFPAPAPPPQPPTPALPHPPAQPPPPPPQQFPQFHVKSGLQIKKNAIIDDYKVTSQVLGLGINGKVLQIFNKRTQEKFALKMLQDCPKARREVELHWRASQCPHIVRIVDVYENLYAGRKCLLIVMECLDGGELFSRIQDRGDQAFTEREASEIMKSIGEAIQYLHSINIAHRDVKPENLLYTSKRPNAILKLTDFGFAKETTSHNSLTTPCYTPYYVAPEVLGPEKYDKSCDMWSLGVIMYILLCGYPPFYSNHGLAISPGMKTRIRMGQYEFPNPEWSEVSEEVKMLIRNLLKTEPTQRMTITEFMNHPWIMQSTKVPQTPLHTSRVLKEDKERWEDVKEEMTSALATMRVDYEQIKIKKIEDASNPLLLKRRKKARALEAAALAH
# Chain of Calcium/calmodulin-dependent protein kinase type 1 (Homo sapiens) (Q14012 whole entry, looked up): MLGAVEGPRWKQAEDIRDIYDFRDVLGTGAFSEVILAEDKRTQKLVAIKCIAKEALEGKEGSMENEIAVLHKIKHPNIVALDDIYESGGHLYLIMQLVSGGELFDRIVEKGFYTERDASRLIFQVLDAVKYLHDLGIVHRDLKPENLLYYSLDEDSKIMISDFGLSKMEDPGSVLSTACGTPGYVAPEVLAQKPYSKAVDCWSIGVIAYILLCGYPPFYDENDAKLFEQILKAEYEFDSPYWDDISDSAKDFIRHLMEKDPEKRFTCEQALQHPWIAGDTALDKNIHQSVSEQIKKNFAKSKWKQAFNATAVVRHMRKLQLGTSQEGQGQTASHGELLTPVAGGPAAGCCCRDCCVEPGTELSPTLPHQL
# Chain of 3-phosphoinositide-dependent protein kinase 1 (Homo sapiens) (O15530 whole entry, looked up): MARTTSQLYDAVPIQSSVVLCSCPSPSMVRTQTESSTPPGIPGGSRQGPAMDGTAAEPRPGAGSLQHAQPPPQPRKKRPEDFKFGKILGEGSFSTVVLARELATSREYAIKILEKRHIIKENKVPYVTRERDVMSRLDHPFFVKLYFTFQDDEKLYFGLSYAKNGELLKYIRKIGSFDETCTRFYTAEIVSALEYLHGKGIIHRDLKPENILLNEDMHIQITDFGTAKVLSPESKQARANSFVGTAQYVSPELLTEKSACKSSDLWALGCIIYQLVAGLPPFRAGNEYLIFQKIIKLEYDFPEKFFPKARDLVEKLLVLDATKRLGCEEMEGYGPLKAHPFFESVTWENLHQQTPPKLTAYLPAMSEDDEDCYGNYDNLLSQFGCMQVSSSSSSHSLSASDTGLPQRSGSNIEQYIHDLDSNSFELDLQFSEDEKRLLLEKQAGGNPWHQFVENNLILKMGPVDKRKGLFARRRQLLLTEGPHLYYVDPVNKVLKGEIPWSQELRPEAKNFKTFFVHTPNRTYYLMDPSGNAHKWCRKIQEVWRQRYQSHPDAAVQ
# Chain of Focal adhesion kinase 1 (Q05397 whole entry): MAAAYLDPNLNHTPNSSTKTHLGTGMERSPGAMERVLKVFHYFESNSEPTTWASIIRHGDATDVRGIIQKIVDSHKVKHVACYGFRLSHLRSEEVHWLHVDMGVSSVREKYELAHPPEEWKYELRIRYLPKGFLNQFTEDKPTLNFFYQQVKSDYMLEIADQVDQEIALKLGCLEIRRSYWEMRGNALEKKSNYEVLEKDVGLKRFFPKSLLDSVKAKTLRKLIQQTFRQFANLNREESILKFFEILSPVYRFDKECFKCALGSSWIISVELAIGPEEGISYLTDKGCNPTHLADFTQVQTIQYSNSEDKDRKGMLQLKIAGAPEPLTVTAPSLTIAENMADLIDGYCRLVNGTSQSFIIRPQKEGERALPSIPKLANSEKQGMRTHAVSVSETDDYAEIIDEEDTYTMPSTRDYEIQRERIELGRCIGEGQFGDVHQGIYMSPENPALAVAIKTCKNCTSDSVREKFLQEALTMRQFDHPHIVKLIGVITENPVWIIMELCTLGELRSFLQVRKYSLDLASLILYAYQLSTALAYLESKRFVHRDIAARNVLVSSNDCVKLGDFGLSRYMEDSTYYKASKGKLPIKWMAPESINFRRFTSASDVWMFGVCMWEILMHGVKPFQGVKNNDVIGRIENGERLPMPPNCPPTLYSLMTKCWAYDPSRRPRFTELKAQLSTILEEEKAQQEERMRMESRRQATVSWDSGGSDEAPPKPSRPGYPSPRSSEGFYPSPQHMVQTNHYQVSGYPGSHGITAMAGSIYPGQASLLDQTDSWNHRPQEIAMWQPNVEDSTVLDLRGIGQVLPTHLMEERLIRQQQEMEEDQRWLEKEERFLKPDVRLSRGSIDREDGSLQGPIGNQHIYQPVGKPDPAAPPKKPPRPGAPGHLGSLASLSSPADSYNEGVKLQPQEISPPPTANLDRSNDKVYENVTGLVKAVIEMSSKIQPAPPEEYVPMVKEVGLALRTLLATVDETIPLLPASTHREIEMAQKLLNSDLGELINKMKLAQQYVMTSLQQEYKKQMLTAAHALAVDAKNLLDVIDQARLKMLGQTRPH
# Chain of Adenosine receptor A2a (P29274 whole entry): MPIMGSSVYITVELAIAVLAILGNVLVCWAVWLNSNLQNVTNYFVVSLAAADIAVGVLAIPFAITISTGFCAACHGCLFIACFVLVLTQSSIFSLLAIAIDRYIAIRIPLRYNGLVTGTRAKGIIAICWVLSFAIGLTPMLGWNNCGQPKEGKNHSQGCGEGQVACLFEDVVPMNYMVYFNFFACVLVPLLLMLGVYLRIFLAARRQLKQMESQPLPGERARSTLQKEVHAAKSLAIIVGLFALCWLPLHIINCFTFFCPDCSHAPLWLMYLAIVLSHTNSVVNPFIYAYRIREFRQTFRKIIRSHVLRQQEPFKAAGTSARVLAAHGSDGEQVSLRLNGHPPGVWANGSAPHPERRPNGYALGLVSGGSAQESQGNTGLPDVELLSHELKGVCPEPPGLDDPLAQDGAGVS
structure (smiles),measurement,setting,value
CNC(=O)c1ccc(Nc2ncc(C(F)(F)F)c(NCc3nccnc3N(C)S(C)(=O)=O)n2)cc1 [DEFACTINIB],Ki,[1],10000 nM
same,Ki,[2],370 nM (not active)
same,IC50,[3],1100 nM (not active)
same,IC50,[4],1640 nM
same,inhibition,[4]; Compound concentration 1.0 uM,34%
same,inhibition,[5],4%
same,inhibition,[6],0%
same,inhibition,[7],72%
same,IC50,[8],344 nM
same,inhibition,[9],43%
same,IC50,[10],250 nM
same,inhibition,[10]; Compound concentration 1.0 uM,99%
same,inhibition,[11],13%
same,IC50,[12],416 nM
same,inhibition,[12]; Compound concentration 1.0 uM,83%
same,IC50,[13],75.3 nM
same,inhibition,[13]; Compound concentration 1.0 uM,98%
same,inhibition,[14],2%
same,inhibition,[15],46%
same,inhibition,[16],12%
same,inhibition,[17],18%
same,IC50,[18],> 1000 nM
same,inhibition,[18]; Compound concentration 1.0 uM,58%
same,inhibition,[19],68%
same,inhibition,[20],18.2%
same,inhibition,[21],-6.06%
same,inhibition,[22],94%
same,inhibition,[23],97%
same,inhibition,[24],25%
CN(c1ccnc(CNc2nc(Nc3ccc4c(c3)CC(=O)N4)ncc2C(F)(F)F)n1)S(C)(=O)=O [PF-00911705],Ki,[25],2120 nM
same,IC50,[26],721 nM (not active)
same,inhibition,[27],0.76%
same,inhibition,[28],9.12%
same,inhibition,[29],0.77%
same,inhibition,[30],15.3%
